Data from the NIST ThermoML archive (doi:10.1021/je100033s).
± gives the expanded uncertainty stated by the source.

Assays:
[1] = refractive index (Na D-line) (dimensionless); details: 101.33 kPa, Liquid, Standard Abbe refractometry
[2] = Liquid; for mass density: 101.33 kPa, Pycnometric method; for Normal boiling temperature: Ebulliometric method (Recirculating still)

Row | SMILES | refractive index ([1]; 293.1 K) | mass density ([2]; 293.1 K) [kg/m3] | Normal boiling temperature [2] [°C] | refractive index ([1]; 298.1 K) | mass density ([2]; 298.1 K) [kg/m3]
1 | CC#N [acetonitrile] | 1.3449 ± 0.0007 | 783.1 ± 0.7 | 81.50 ± 0.2 | – | –
2 | C[S+](C)[O-] [dimethyl sulfoxide] | – | – | 188.91 ± 0.2 | 1.4775 ± 0.0007 | 1096.1 ± 1
3 | CCCO [propan-1-ol] | 1.386 ± 0.0007 | 804 ± 0.7 | 97.09 ± 0.2 | – | –
